Data reported in patent US9493455B2, “Azaindole derivatives as inhibitors of protein kinases” (ORIBASE PHARMA, priority 2012, dated 2016).

What was measured:
ABL = target: T1, ABL (Homo sapiens, UniProt P00519); assay: In vitro kinase assay (Z′-LYTE); type: biochemical; conditions: read-out: % of inhibition of the kinase compared to the control
T1 construct: purchased Invitrogen

ABL T315I = target: T2, ABL T315I (Homo sapiens, UniProt P00519, T315I); assay: In vitro kinase assay (Z′-LYTE); type: biochemical; conditions: read-out: % of inhibition of the kinase compared to the control
T2 construct: purchased Invitrogen
How it was run: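 Percent inhibition is derived from a coupled-enzyme fluorescence format in which unphosphorylated FRET peptide is preferentially proteolysed. Compounds are screened once at 100 nM (10 μM against ABL T315I) in 1% DMSO, with ATP at its apparent Km.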

BRAF = target: T3, BRAF (Homo sapiens, UniProt P15056); assay: In vitro kinase assay (Z′-LYTE); type: biochemical; conditions: compound 100 nM; ATP 100 μM; read-out: % of inhibition of the kinase compared to the control
T3 construct: purchased Invitrogen
How it was run: (§1)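 Read-out is a ratiometric FRET signal (donor/acceptor emission, 400 nm excitation) from a doubly labelled peptide, whose cleavage by a development protease depends on its phosphorylation state. ATP used at apparent Km in HEPES pH 7.5 buffer with MgCl2; compounds at 100 nM, or 10 μM for ABL T315I.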

EGFR (ErbB1) = target: T4, EGFR (ErbB1) (Homo sapiens, UniProt P00533); assay: In vitro kinase assay (Z′-LYTE); type: biochemical; conditions: read-out: % of inhibition of the kinase compared to the control
T4 construct: purchased Invitrogen
How it was run: as §1

EGFR (ErbB1) T790M L858R = target: T5, EGFR (ErbB1) T790M L858R (Homo sapiens, UniProt P00533, L858R/T790M); assay: In vitro kinase assay (Z′-LYTE); type: biochemical; conditions: read-out: % of inhibition of the kinase compared to the control
T5 construct: purchased Invitrogen
How it was run: as §1

FGFR1 = target: T6, FGFR1 (Homo sapiens, UniProt P11362); assay: In vitro kinase assay (Z′-LYTE); type: biochemical; conditions: read-out: % of inhibition of the kinase compared to the control
T6 construct: purchased Invitrogen
How it was run: as §1

FGFR2 = target: T7, FGFR2 (Homo sapiens, UniProt P21802); assay: In vitro kinase assay (Z′-LYTE); type: biochemical; conditions: read-out: % of inhibition of the kinase compared to the control
T7 construct: purchased Invitrogen
How it was run: as §1

KDR (VEGFR2) = target: T8, KDR (VEGFR2) (Homo sapiens, UniProt P35968); assay: In vitro kinase assay (Z′-LYTE); type: biochemical; conditions: read-out: % of inhibition of the kinase compared to the control
T8 construct: purchased Invitrogen
How it was run: as §1

PDGFRA (PDGFR alpha) = target: T9, PDGFRA (PDGFR alpha) (Homo sapiens, UniProt P16234); assay: In vitro kinase assay (Z′-LYTE); type: biochemical; conditions: read-out: % of inhibition of the kinase compared to the control
T9 construct: purchased Invitrogen
How it was run: as §1

PDGFRB = target: T10, PDGFRB (Homo sapiens, UniProt P09619); assay: In vitro kinase assay (Z′-LYTE); type: biochemical; conditions: read-out: % of inhibition of the kinase compared to the control
T10 construct: purchased Invitrogen
How it was run: as §1

SRC = target: T11, SRC (Homo sapiens, UniProt P12931); assay: In vitro kinase assay (Z′-LYTE); type: biochemical; conditions: read-out: % of inhibition of the kinase compared to the control
T11 construct: purchased Invitrogen
How it was run: as §1

VEGFR1 = target: T12, VEGFR1 (Homo sapiens, UniProt P17948); assay: In vitro kinase assay (Z′-LYTE); type: biochemical; conditions: read-out: % of inhibition of the kinase compared to the control
T12 construct: purchased Invitrogen
How it was run: as §1

A549 = assay: In vitro cell proliferation assay (MTT); type: cell-based; conditions: Homo sapiens, A549, 72 h
How it was run: (§2)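 MTT read-out of proliferation after 72 hr compound exposure; 5×10^3 cells/well, duplicate wells, dose range 10 nM–3 μM.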

BxPC-3 = assay: In vitro cell proliferation assay (MTT); type: cell-based; conditions: Homo sapiens, BXPC-3, 72 h
How it was run: as §2

H1975 = assay: In vitro cell proliferation assay (MTT); type: cell-based; conditions: Homo sapiens, NCI-H1975, 72 h
How it was run: as §2

HT29 = assay: In vitro cell proliferation assay (MTT); type: cell-based; conditions: Homo sapiens, HT-29, 72 h
How it was run: as §2

HUVEC = assay: In vitro cell proliferation assay (MTT); type: cell-based; conditions: Homo sapiens, 72 h
Description: Cancer cell lines (5×10^3 cells per well) or HUVEC (1×10^4 cells per well) or HRMEC (1×10^4 cells per well) were distributed in 96-well plates and incubating in duplicate with escalating concentrations (10 nM to 3 μM) of compounds for 72 hr. Cell proliferation was measured using MTT (3 [4,5-dimethylthiazol-2-yl]-2,5-diphenyltetrazolium bromide).

HepG2 = assay: In vitro cell proliferation assay (MTT); type: cell-based; conditions: Homo sapiens, HepG2, 72 h
How it was run: as §2

MDA-MB-231 = assay: In vitro cell proliferation assay (MTT); type: cell-based; conditions: Homo sapiens, MDA-MB-231, 72 h
How it was run: as §2

PC-3 = assay: In vitro cell proliferation assay (MTT); type: cell-based; conditions: Homo sapiens, PC-3, 72 h
How it was run: as §2

HeLa = assay: In vitro cell proliferation assay (MTT); type: cell-based; conditions: Homo sapiens, 72 h
How it was run: as §2

HuCCT1 = assay: In vitro cell proliferation assay (MTT); type: cell-based; conditions: Homo sapiens, HuCCT-1, 72 h
How it was run: as §2

HuH6 Clone 5 = assay: In vitro cell proliferation assay (MTT); type: cell-based; conditions: HUH-6-clone5, 72 h
How it was run: as §2

HuH7 = assay: In vitro cell proliferation assay (MTT); type: cell-based; conditions: Homo sapiens, Huh-7, 72 h
How it was run: as §2

T7 sequence (P21802 22-821): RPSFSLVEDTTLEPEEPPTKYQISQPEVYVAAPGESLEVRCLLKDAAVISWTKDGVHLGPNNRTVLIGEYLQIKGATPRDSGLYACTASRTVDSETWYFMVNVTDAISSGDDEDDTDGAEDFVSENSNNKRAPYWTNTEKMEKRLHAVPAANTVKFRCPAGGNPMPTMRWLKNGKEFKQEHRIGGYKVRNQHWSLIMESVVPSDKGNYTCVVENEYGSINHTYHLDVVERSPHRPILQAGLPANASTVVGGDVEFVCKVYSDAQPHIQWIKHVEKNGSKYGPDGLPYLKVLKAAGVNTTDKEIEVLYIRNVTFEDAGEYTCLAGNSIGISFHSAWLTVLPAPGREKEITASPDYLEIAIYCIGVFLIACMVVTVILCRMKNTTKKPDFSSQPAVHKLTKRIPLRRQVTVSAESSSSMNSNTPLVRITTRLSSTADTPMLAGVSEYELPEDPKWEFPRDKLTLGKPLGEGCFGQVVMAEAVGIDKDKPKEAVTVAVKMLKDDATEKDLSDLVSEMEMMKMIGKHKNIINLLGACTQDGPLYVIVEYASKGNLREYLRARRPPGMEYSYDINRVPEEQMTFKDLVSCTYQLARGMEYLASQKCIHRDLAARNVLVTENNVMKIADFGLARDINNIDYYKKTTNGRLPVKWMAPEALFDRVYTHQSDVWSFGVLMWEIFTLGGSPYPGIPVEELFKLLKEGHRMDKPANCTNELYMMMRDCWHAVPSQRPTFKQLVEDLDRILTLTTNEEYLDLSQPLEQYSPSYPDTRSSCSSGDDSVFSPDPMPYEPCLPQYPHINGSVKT
T8 sequence (P35968 20-1356): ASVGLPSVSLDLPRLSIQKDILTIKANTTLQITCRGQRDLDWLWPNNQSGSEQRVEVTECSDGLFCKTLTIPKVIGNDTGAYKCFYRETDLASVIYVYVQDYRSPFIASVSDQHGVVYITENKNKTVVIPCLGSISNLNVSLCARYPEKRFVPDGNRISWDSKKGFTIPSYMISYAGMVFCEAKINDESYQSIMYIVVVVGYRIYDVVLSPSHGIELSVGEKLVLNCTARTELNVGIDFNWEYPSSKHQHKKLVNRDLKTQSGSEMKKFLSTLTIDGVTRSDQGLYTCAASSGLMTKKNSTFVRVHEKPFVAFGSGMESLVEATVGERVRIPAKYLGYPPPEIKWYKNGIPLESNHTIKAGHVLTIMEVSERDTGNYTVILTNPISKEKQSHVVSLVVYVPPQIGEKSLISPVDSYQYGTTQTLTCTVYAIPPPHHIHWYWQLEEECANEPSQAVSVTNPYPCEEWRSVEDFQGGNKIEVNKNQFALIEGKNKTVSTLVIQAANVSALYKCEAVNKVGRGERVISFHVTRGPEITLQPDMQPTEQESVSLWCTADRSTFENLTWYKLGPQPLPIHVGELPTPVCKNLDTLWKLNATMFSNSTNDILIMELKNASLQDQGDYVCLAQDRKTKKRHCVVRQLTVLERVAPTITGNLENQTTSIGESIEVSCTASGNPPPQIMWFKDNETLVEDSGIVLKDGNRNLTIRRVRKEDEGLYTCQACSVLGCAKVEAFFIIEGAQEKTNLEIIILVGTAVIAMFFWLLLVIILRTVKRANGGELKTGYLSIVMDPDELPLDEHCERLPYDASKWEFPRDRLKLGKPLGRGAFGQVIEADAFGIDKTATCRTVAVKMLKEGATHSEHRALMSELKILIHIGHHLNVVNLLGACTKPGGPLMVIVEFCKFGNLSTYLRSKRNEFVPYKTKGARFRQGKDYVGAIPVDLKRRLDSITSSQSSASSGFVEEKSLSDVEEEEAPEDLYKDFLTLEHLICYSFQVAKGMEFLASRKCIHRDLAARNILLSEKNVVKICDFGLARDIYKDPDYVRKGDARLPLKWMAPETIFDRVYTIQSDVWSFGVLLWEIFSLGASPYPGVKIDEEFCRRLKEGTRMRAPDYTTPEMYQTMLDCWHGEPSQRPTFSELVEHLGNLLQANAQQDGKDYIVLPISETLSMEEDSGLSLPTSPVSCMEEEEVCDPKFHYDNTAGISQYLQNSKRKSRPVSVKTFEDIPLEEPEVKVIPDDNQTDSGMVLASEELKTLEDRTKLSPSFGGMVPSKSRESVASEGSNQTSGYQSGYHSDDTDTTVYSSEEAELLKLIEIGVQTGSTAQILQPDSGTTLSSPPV
T6 sequence (P11362 22-822): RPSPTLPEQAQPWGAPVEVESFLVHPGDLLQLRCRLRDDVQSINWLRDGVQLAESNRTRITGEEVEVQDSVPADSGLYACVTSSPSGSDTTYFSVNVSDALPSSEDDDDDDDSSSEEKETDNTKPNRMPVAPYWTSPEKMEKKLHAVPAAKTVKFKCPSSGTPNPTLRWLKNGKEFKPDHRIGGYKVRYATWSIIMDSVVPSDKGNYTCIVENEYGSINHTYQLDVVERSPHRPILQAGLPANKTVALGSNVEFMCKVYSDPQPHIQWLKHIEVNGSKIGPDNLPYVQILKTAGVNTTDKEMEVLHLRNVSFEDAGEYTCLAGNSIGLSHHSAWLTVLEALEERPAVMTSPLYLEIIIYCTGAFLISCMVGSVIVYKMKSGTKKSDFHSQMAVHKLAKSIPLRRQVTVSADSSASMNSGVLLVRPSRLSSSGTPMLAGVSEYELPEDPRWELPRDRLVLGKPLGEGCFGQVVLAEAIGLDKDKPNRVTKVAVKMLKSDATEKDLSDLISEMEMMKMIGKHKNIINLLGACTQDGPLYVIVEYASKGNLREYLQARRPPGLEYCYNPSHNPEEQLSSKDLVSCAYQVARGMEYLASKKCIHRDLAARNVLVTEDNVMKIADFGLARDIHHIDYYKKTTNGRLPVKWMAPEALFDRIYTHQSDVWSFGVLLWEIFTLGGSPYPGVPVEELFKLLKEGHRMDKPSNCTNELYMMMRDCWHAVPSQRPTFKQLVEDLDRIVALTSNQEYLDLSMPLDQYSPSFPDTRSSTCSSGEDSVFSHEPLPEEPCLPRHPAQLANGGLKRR
T12 sequence (P17948 27-1338): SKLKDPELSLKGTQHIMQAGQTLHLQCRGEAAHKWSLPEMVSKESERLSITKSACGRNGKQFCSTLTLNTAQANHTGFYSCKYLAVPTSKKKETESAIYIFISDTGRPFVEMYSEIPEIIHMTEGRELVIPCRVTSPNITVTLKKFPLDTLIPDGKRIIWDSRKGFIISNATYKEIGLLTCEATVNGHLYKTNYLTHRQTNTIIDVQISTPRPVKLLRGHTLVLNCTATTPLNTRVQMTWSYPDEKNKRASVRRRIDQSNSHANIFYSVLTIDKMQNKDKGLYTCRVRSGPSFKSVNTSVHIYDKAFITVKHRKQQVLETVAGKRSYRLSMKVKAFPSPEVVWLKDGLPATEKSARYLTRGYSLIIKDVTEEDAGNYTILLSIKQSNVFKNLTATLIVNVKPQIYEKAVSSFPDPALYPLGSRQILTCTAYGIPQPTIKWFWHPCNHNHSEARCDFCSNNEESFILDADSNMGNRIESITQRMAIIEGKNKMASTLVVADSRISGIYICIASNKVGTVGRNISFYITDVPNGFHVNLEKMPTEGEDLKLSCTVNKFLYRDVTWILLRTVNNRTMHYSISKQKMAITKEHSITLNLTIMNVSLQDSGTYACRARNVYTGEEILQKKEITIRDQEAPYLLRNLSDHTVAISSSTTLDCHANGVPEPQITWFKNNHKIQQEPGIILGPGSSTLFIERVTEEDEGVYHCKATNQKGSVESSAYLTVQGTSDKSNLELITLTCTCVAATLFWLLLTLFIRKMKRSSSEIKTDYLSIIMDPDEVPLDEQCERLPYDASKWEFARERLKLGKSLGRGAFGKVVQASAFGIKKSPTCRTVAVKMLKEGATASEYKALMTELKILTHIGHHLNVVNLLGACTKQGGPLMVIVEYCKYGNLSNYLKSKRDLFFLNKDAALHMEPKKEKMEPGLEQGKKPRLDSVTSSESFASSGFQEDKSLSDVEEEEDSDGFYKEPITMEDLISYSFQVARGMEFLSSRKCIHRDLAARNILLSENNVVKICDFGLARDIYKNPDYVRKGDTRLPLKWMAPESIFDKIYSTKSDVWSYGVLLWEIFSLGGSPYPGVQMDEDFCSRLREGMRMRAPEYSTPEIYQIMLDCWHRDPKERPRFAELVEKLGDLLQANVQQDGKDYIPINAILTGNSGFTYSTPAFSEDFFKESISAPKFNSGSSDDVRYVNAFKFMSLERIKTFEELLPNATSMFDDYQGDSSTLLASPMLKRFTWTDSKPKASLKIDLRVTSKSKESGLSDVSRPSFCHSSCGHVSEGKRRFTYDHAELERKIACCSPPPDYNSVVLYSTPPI
T11 sequence (P12931 whole entry): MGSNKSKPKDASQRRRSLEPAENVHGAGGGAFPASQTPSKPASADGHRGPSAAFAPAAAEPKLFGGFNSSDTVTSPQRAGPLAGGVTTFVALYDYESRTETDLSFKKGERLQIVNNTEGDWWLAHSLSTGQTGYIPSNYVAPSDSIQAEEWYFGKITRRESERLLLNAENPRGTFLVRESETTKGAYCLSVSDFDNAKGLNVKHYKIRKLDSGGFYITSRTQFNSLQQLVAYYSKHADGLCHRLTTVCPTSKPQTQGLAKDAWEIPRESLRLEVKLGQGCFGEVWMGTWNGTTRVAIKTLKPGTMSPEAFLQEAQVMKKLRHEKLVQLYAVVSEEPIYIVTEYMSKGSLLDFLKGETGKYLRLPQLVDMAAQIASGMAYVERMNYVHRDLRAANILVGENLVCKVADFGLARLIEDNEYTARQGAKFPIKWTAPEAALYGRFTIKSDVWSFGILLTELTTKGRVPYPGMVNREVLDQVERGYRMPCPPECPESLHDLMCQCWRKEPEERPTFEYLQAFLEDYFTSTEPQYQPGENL

Compound	inhibition at 10 µM (ABL) [%]	inhibition at 10 µM (ABL T315I) [%]	inhibition at 0.1 µM (BRAF) [%]	inhibition at 0.1 µM (EGFR (ErbB1)) [%]	inhibition at 0.1 µM (EGFR (ErbB1) T790M L858R) [%]	inhibition at 0.1 µM (FGFR1) [%]	inhibition at 0.1 µM (FGFR2) [%]	inhibition at 0.1 µM (KDR (VEGFR2)) [%]	inhibition at 0.1 µM (PDGFRA (PDGFR alpha)) [%]	inhibition at 0.1 µM (PDGFRB) [%]	inhibition at 0.1 µM (SRC) [%]	inhibition at 0.1 µM (VEGFR1) [%]	EC50 (A549) [nM]	EC50 (BxPC-3) [nM]	EC50 (H1975) [nM]	EC50 (HT29) [nM]	EC50 (HepG2) [nM]	EC50 (MDA-MB-231) [nM]	EC50 (PC-3) [nM]	EC50 (HUVEC) [nM]	other results
COC(=O)c1cc2cc(NCc3cc(NC(=O)c4cc(Nc5cc[nH]n5)cc(C(F)(F)F)c4)ccc3C)cnc2[nH]1 [OR0642]	≥ 50	≥ 50	< 50	≥ 50	< 50	< 50	< 50	< 50	< 50	< 50	≥ 50	< 50	100 to 1000	100 to 1000	≥ 1000	100 to 1000	≤ 100	≤ 100	≥ 1000	≤ 100	–
COC(=O)c1cc2cc(NCc3cc(NC(=O)c4cccc(C(F)(F)F)c4)ccc3C)cnc2[nH]1 [OR0606]	≥ 50	≥ 50	< 50	≥ 50	< 50	< 50	< 50	< 50	≥ 50	< 50	≥ 50	< 50	100 to 1000	100 to 1000	100 to 1000	100 to 1000	≤ 100	≤ 100	≥ 1000	≤ 100	EC50 (HeLa): ≥ 1000 nM
COC(=O)c1cc2cc(NCc3cc(NC(=O)c4ccc(CN5CCC(O)CC5)c(C(F)(F)F)c4)ccc3C)cnc2[nH]1 [OR0636]	≥ 50	< 50	< 50	≥ 50	< 50	< 50	< 50	< 50	≥ 50	< 50	≥ 50	< 50	100 to 1000	100 to 1000	≥ 1000	100 to 1000	100 to 1000	100 to 1000	≥ 1000	100 to 1000	EC50 (HuCCT1): ≥ 1000 nM
CNC(=O)c1cc(Oc2ccc(NC(=O)Nc3ccc(Cl)c(C(F)(F)F)c3)cc2)ccn1 [Sorafenib, reference compound]	–	–	–	–	–	–	–	–	–	–	–	–	–	–	–	–	≥ 1000	–	–	100 to 1000	EC50 (HuCCT1): ≥ 1000 nM; EC50 (HuH6 Clone 5): ≥ 1000 nM; EC50 (HuH7): ≥ 1000 nM

Further lines, with some results ahead:

inhibition at 10 µM (ABL) [%]	inhibition at 10 µM (ABL T315I) [%]	inhibition at 0.1 µM (BRAF) [%]	inhibition at 0.1 µM (EGFR (ErbB1)) [%]	inhibition at 0.1 µM (EGFR (ErbB1) T790M L858R) [%]	inhibition at 0.1 µM (FGFR1) [%]	inhibition at 0.1 µM (FGFR2) [%]	inhibition at 0.1 µM (KDR (VEGFR2)) [%]	inhibition at 0.1 µM (PDGFRA (PDGFR alpha)) [%]	inhibition at 0.1 µM (PDGFRB) [%]	inhibition at 0.1 µM (SRC) [%]	inhibition at 0.1 µM (VEGFR1) [%]	EC50 (A549) [nM]	EC50 (BxPC-3) [nM]	EC50 (H1975) [nM]	EC50 (HT29) [nM]	EC50 (HepG2) [nM]	EC50 (MDA-MB-231) [nM]	EC50 (PC-3) [nM]	Compound	EC50 (HUVEC) [nM]	other results
≥ 50	≥ 50	< 50	< 50	< 50	< 50	< 50	< 50	≥ 50	< 50	≥ 50	< 50	100 to 1000	≤ 100	100 to 1000	100 to 1000	≤ 100	≤ 100	≥ 1000	COC(=O)c1cc2cc(NCc3cc(NC(=O)c4cccc(OC(F)(F)F)c4)ccc3C)cnc2[nH]1 [OR0611]	100 to 1000	EC50 (HeLa): ≥ 1000 nM
–	–	< 50	< 50	–	–	< 50	< 50	< 50	–	–	–	≥ 1000	–	–	–	≥ 1000	≥ 1000	–	COC(=O)c1cc2cc(NCc3cc(NC(=O)Nc4ccncc4)ccc3C)cnc2[nH]1 [OR0952]	≥ 1000	EC50 (HeLa): ≥ 1000 nM
